Results reported in US10920198B2, “Delta133p53beta and delta133p53gamma isoforms are biomarkers of cancer stem cells” (Centre National de la Recherche Scientifique (CNRS), priority 2015, dated 2021).

Experiments:
[1] = system: Δ133p53 (α, β and γ) isoforms; test: Expression of Δ133p53 isoforms in MCF-7 cells (RT-qPCR, western blot); assay type: cell-based, human; details: MCF-7, etoposide treatment; RT-qPCR and western blot
From the text: (§1) The following antibodies were used for immunoblotting: anti-c-Myc (9E10 mouse hybridoma clone), -Nanog (sc-81961, Santa Cruz Biotechnology), -Oct 3/4 (sc-8630, Santa Cruz Biotechnology), -Sox 2 (sc-17320, Santa Cruz Biotechnology), -p53 (DO-1; sc-126 Santa Cruz Biotechnology), -p53 Sapu (Vojtesek et al. 1995), -α-tubulin (clone DM1A, Sigma-Aldrich), -β-actin (clone AC-74 Sigma-Aldrich), -p21 (sc-397 Santa Cruz Biotechnology) and -Flag (clone M2; Sigma-Aldrich). Secondary HRP-conjugated antibodies were from GE Healthcare. For luminescence quantification, cells were serially diluted and incubated with 0.5 mM D-luciferin (Sigma). Luminescence was quantified with a Polarstar Omega instrument (BMG LABTECH).
Total RNA was extracted (Qiagen) and reverse transcription (RT) was performed with 1-5 μg of total RNA using the SuperScript® III Reverse Transcriptase (Life Technologies) at 50° C. Levels of different mRNAs were quantified by real-time qPCR on a LightCycler480 apparatus (Roche). […] For each single-well amplification reaction, a threshold cycle (Ct) was calculated by using the LightCycler480 program (Roche) in the exponential phase of amplification. Relative changes in gene expression were determined using the 2ΔΔCt method and reported relative to a control. All quantification studies were performed with at least three independent experiments, repeated twice, for each condition. […]

[2] = system: c-Myc, Oct 3/4, Nanog and Sox 2; test: Expression of pluripotency/reprogramming factors in MDA-MB-231 D3H2LN cells (RT-qPCR, western blot); assay type: cell-based, human
Description: (§2) The human breast cancer cell lines MCF-7, MDA-MB 231 D3H2LN and C3LND were grown in MEM supplemented with 10% FCS, sodium pyruvate and glutamine. Following viral infection, cells were used after 24-48 h or subjected to selection with 2 μg/ml puromycin (InvivoGen) or 300 μg/ml hygromycin B (Invitrogen) for two days. Etoposide treatment was performed with final doses of 12.5, 25 and 50 ng/ml for 16 h or 50 ng/ml/day for 7 days.
as §1
(§3) Total RNA was extracted (Qiagen) and reverse transcription (RT) was performed with 1-5 μg of total RNA using the SuperScript® III Reverse Transcriptase (Life Technologies) at 50° C. Levels of different mRNAs were quantified by real-time qPCR on a LightCycler480 apparatus (Roche). Briefly, 20 ng cDNA was amplified using 0.168 μM of each primer, 0.2 μM of probe (Table 4) and 1× LightCycler® 480 Probes Master Mix (Roche) for the p53 isoforms, or commercially available primers (Qiagen) and 1× LightCycler® 480 Sybr Green Master Mix (Roche) for the other genes. Data were normalized to the internal standard TBP. The different primers used and their corresponding sequences have been previously described (Bourdon et al., 2005). For each single-well amplification reaction, a threshold cycle (Ct) was calculated by using the LightCycler480 program (Roche) in the exponential phase of amplification. Relative changes in gene expression were determined using the 2ΔΔCt method and reported relative to a control. All quantification studies were performed with at least three independent experiments, repeated twice, for each condition. Data are presented as the arithmetic mean±SEM.

MCF-7 cells = test: Mammosphere formation in MCF-7 cells; assay type: cell-based, human
Description: (§4) For mammosphere formation, 1000 cells/ml (500 cells/well) were plated in Ultra Low Cluster Plate, 24-well, Flat Bottom (Corning Inc) with MammoCult™ Medium enriched with MammoCult™ Proliferation Supplements, hydrocortisone and heparin (Stem Cell Technologies) and cultured for 15 days. For all mammosphere assays, at least three independent experiments for each condition were carried out and repeated 8-12 times. For self-renewal experiments, transfected cells were subjected to a first cycle of mammosphere formation. Upon 15 days of culture the created mammospheres were dissociated and cells were re-plated in identical conditions as for the first plating.

p53, p21 [3] = test: Western blot of p53 and p21 in MDA-MB-231 D3H2LN cells after etoposide; assay type: cell-based, human; details: MDA-MB-231 D3H2LN (p53 R280K), increasing concentrations of etoposide
Description: (§5) The human breast cancer cell lines MCF-7, MDA-MB 231 […] and […] were grown in MEM supplemented with 10% FCS, sodium pyruvate and glutamine. Following viral infection, cells were used after 24-48 h or subjected to selection with 2 μg/ml puromycin (InvivoGen) or 300 μg/ml hygromycin B (Invitrogen) for two days. Etoposide treatment was performed with final doses of 12.5, 25 and 50 ng/ml for 16 h or 50 ng/ml/day for 7 days. […] Secondary HRP-conjugated antibodies were from GE Healthcare. For luminescence quantification, cells were serially diluted and incubated with 0.5 mM D-luciferin (Sigma). Luminescence was quantified with a Polarstar Omega instrument (BMG LABTECH).

[4] = system: c-Myc, Sox 2, Oct 3/4 and Nanog; test: Expression of pluripotency/reprogramming factors in MCF-7 cells (RT-qPCR, western blot); assay type: cell-based, human
From the text: as §1, §3

[5] = system: Δ133p53 (α, β and γ) isoforms; test: Expression of Δ133p53 isoforms in MDA-MB-231 D3H2LN cells after etoposide; assay type: cell-based, human; details: not dose-dependent
Description: as §2, with “D3H2LN” left out, “C3LND” left out

p53, p21 [6] = test: Western blot of p53 and p21 in MCF-7 cells after etoposide; assay type: cell-based, human; details: MCF-7, increasing concentrations of etoposide, 16 hours
Description: as §5

[7] = system: SW480 colon carcinoma cells; test: Colosphere formation in SW480 colon carcinoma cells; assay type: cell-based, human; details: compared to control shLuc
Description: as §4
The same protocol has been used with human colon carcinoma cell line SW480.

C3LND cancer cells = test: Distant metastasis after intracardiac injection of C3LND cells in athymic mice (bioluminescence); assay type: in vivo; details: transduced C3LND cells, compared to control cells
Description: All in vivo experiments were performed in compliance with the French regulations and ethical guidelines for experimental animal studies in an accredited establishment (Agreement No. C34-172-27). 2.10^6 control or Sh3-treated C3LND cancer cells were grafted in 6 week-old female athymic mice (Harlan, Le Malourlet, France) by intracardiac injection (n=5-7/group). Bioluminescence detection was used to monitor tumor growth and distal metastasis formation in head and legs. Regions of interest (ROI) were delineated around the tumor sites and the total flux (ph/s) in the ROI was measured.

MDA-MB-231 C3LND cells [8] = test: Mammosphere formation in MDA-MB-231 C3LND cells; assay type: cell-based, human; details: C3LND cells after transduction
Description: as §4

[9] = system: c-Myc, Oct 3/4, Nanog and Sox 2; test: RT-qPCR of pluripotency/reprogramming factors in MDA-MB-231 C3LND cells; assay type: cell-based, human; details: C3LND cells after transduction
Description: as §3

MDA-MB-231 C3LND cells [10] = test: Flow cytometry of CD44/CD24 double labeling in MDA-MB-231 C3LND cells; assay type: cell-based, human; details: C3LND cells after transduction
Description: Single cell suspensions were labeled on ice with CD24-FITC, CD44-PE and their respective isotype controls (BioLegend) at the dilutions indicated by the manufacturer in Phosphate Buffered Saline (PBS) with 10% FBS for 30 min. Cells were then washed once with PBS and re-suspended in PBS/10% FBS. All samples were analyzed on a CyAn analyzer ([…] Coulter, Inc) using Sytox Blue (Life Technologies) to monitor cell viability.

MDA-MB-231 D3H2LN cells = test: Mammosphere formation in MDA-MB-231 D3H2LN cells; assay type: cell-based, human; details: overexpression
Description: as §4

[11] = MCF-7 cells after transduction, compared to control cells
[12] = MCF-7 cells after transduction, mRNA and/or protein

`COc1cc([C@@H]2c3cc4c(cc3[C@@H](O[C@@H]3O[C@@H]5CO[C@@H](C)O[C@H]5[C@H](O)[C@H]3O)[C@H]3COC(=O)[C@H]23)OCO4)cc(OC)c1O` [etoposide, reference compound] was tested, and the Δ133p53 isoforms expression [1] was “strongly up-regulated in a dose-dependent manner”, the c-Myc expression ([2]; MDA-MB-231 D3H2LN, increasing concentrations of etoposide) was “significantly down-regulated” and the “expression of Nanog, Sox 2 and Oct 3/4” value ([2]; MDA-MB-231 D3H2LN, incubation with etoposide) was “up-regulated”. The mammosphere formation (MCF-7 cells; Sh2-transduced MCF-7 cells, 50 ng/ml/day for 7 days) was “did not have any significant effect”, the mammosphere formation (MCF-7 cells; control MCF-7 cells (active TAp53), 50 ng/ml/day for 7 days) was “significantly reduced” and the TAp53 expression (p53, p21 [3]) was “did not affect”. The p21 expression (p53, p21 [3]) was “only weakly increased”, the c-Myc expression ([4]; MCF-7, increasing concentrations of etoposide, western blot and RT-qPCR) was “reduced” and the “Oct 3/4, Nanog and Sox 2 expression” value ([4]; MCF-7, increasing doses of etoposide, RT-qPCR) was “strongly up-regulated in a dose-dependent manner”. For the same molecule, the “expression of Δ133p53 isoforms” value [5] was “up-regulated”, the TAp53α level (p53, p21 [6]) was “stabilization” and the p21 expression (p53, p21 [6]) was “increased”.
“Sh3: shRNA, 5′-GGAGGTGCTTACACATGTT-3′ (SEQ ID NO: 14); targets the 5′ UTR of the Δ133 isoforms (α, β and γ) (target site or template, no part of the molecule; short hairpin RNA, only the targeted sequence is given, further chemistry not given here)” was tested, and the colospheres formation [7] was “significantly reduced”, the “metastasis to distant sites” value (C3LND cancer cells) was “less prone to metastasize to distant sites” and the sphere formation (MDA-MB-231 C3LND cells [8]) was “significant reduction”. The mammosphere formation (MCF-7 cells; [11]) was “significantly reduced”, the “Oct 3/4, Nanog and Sox 2 expression” value [9] was “marked decrease” and the c-Myc level [9] was “small increase”. The c-Myc expression [4, 12] was “not affected”, the “expression of Oct 3/4, Nanog and Sox 2” value [4, 12] was “significantly down-regulated” and the “Oct 3/4, Nanog and Sox 2 expression” value ([4]; MCF-7 cells, both etoposide treated and untreated) was “reduced”. For the same molecule, the “proportion of CD44+/CD24− cells” value (MDA-MB-231 C3LND cells [10]) was “decreased”.
“Δ133p53β: human p53 isoform (SEQ ID NO: 1), overexpressed from pMSCVhyg retroviral vector” was tested, and the “Oct 3/4, Nanog and Sox 2 expression” value ([2]; D3H2LN cells, overexpression) was “significant increase”, the c-Myc level ([2]; D3H2LN cells, overexpression) was “not affected” and the mammosphere formation (MDA-MB-231 D3H2LN cells) was “significant increase”. For the same molecule, the mammosphere formation (MCF-7 cells; [11]) was “significantly promoted”, the “mammosphere formation after harvesting and re-plating of primary mammospheres” value (MCF-7 cells; MCF-7 cells overexpressing the isoform, self-renewal) was “higher” and the “Oct 3/4, Nanog and Sox 2 expression” value [9] was “increased”. For the same molecule, the c-Myc expression [4, 12] was “but not of c-Myc” and the “expression of Oct 3/4, Nanog and Sox 2” value [4, 12] was “significant increase”.
